Test results from patent US8658698B2, “Insecticidal compounds” (Syngenta Crop Protection, LLC, priority 2008, dated 2014).

How the values were obtained:
Type in all cases: in vivo
[1] = test system: Myzus persicae (Green Peach Aphid); assay: Myzus persicae sucrose solution feeding test; details: same protocol, 12.5 ppm, 6 days
Experimental: (§1) This Example illustrates the pesticidal/insecticidal properties of compounds of formula (I). The tests were performed as follows:
(§2) Cotton leaf discs were placed on agar in a 24-well microtiter plate and sprayed with test solutions at an application rate of 200 ppm. After drying, the leaf discs were infested with 5 L1 larvae. The samples were checked for mortality, feeding behavior, and growth regulation 3 days after treatment (DAT). The following compounds gave at least 80% control of Spodoptera littoralis: A2, A6, A8, A9, A10, A11, A13, A15, A19, A20, A22, A25, A27, A29, A31, A33, A35, A41, A50, A55, A60, A65, A73, A88, A92, and A94. Heliothis virescens (Tobacco Budworm): Eggs (0-24 h old) were placed in 24-well microtiter plate on artificial diet and treated with test solutions at an application rate of 200 ppm (concentration in well 18 ppm) by pipetting. After an incubation period of 4 days, samples were checked for egg mortality, larval mortality and growth regulation. The following compounds gave at least 80% control of Heliothis virescens: A2, A3, A4, A5, A6, A7, A9, A10, A11, A13, A15, A19, A20, A22, A25, A26, A27, A28, A29, A31, A32, A33, A35, A38, A40, A41, A43, A46, A55, A59, A60, A65, A69, A70, A71, A73, A74, A75, A77, A79, A80, A82, A86, A88, A89, A90, A92, A94, A96, A98, and A100. Plutella xylostella (Diamond Back Moth): A 24-well microtiter plate (MTP) with artificial diet was treated with test solutions at an application rate of 200 ppm (concentration in well 18 ppm) by pipetting. After drying, the MTP's were infested with L2 larvae (7-12 per well). After an incubation period of 6 days, samples were checked for larval mortality and growth regulation. The following compounds gave at least 80% control of Plutella xylostella: A3, A4, A5, A6, A7, A8, A10, A15, A16, A18, A19, A20, A22, A25, A26, A27, A28, A29, A31, A32, A33, A35, A38, A40, A55, A69, A71, A73, A74, A75, A76, A77, A78, A80, A82, A86, A87, A88, A89, A92, A94, A96, A97, A98, and A99. Diabrotica balteata (Corn Root Worm): A 24-well microtiter plate (MTP) with artificial diet was treated with test solutions at an application rate of 200 ppm (concentration in well 18 ppm) by pipetting. After drying, the MTP's were infested with larvae (L2) (6-10 per well). After an incubation period of 5 days, samples were checked for larval mortality, and growth regulation. The following compounds gave at least 80% control of Diabrotica balteata: A5, A6, A7, A14, A15, A18, A24, A35, A53, A55, A70, A71, A75, A79, A84, A85, A88, A92, A93, A95, A96, A97, A98, A99, A100, A101, A102, A103, and A104. Myzus persicae (Green Peach Aphid): Each well of a 24-well microtiter plate is filled with 0.6 ml 30% sucrose solution, containing 12.5 ppm of the test compounds. The wells are covered with streched parafilm and infested with a mixed population of Myzus persicae. After an incubation period of 6 days, samples are checked for mortality (feeding activity). The following compounds gave at least 80% control of Myzus persicae: A4, A6, A10, A11, A15, A19, A20, A24, A27, A29, A33, A34, A36, A37, A39, A40, A41, A42, A43, A44, A45, A46, A47, A48, A49, A55, A60, and A82. Tetranychus urticae (Two-Spotted Spider Mite): Bean leaf discs on agar in 24-well microtiter plates were sprayed with test solutions at an application rate of 200 ppm. After drying, the leaf discs are infested with mite populations of mixed ages. 8 days later, discs are checked for egg mortality, larval mortality, and adult mortality. The following compounds gave at least 80% control of Tetranychus urticae: A6, A11, A15, A19, A20, A22, A26, A35, A58, and A64.

[2] = test system: Tetranychus urticae (Two-Spotted Spider Mite); assay: Tetranychus urticae bean leaf disc spray test; details: same protocol, 200 ppm, 8 days
Experimental: as §1, §2

[3] = test system: Plutella xylostella (Diamond Back Moth); assay: Plutella xylostella larvae test on artificial diet; details: same protocol, 200 ppm (18 ppm in well), 6 days
Experimental: as §1, §2

[4] = test system: Spodoptera littoralis (Egyptian Cotton Leafworm); assay: Spodoptera littoralis cotton leaf disc spray test; details: same protocol, 200 ppm, 3 DAT
Experimental: as §1
Spodoptera littoralis (Egyptian Cotton Leafworm)
as §2

[5] = test system: Heliothis virescens (Tobacco Budworm); assay: Heliothis virescens egg test on artificial diet; details: same protocol, 200 ppm (18 ppm in well), 4 days
Experimental: as §1, §2

[6] = test system: Diabrotica balteata (Corn Root Worm); assay: Diabrotica balteata larvae test on artificial diet; details: same protocol, 200 ppm (18 ppm in well), 5 days
Experimental: as §1, §2

Measured: effect on mortality, feeding behavior, or growth regulation

CCc1cc(C(F)(C(F)(F)F)C(F)(F)C(F)(F)F)cc(C)c1NC(=O)c1ccc(C(=O)Nc2nc3c(C)cccc3s2)c(C)c1 (stereo not drawn) [A62]
no or little effect: all assays above

CCc1cc(C(F)(C(F)(F)F)C(F)(F)C(F)(F)F)cc(C)c1NC(=O)c1ccc(C(=O)Nc2nnc(C)s2)c(C)c1 (stereo not drawn) [A63]
no or little effect: all assays above

CCc1cc(C(F)(C(F)(F)F)C(F)(F)C(F)(F)F)cc(C)c1NC(=O)c1ccc(C(=O)Nc2nc(-c3ccc(C)cc3)cs2)c(C)c1 (stereo not drawn) [A66]
no or little effect: all assays above

CCc1cc(C(F)(C(F)(F)F)C(F)(F)C(F)(F)F)cc(C)c1NC(=O)c1ccc(C(=O)NCCCN2CCCCC2)c(C)c1 (stereo not drawn) [A67]
no or little effect: all assays above

CCc1cc(C(F)(C(F)(F)F)C(F)(F)C(F)(F)F)cc(C)c1NC(=O)c1ccc(C(=O)NCc2cc(-c3ccc(Cl)cc3)no2)c(C)c1 (stereo not drawn) [A68]
no or little effect: all assays above

CCc1cc(C(F)(C(F)(F)F)C(F)(F)C(F)(F)F)cc(C)c1NC(=O)c1ccc(C(=O)NC2CC(C)(C)N(C)C(C)(C)C2)c(C)c1 (stereo not drawn) [A72]
no or little effect: all assays above

CCc1cc(C(F)(C(F)(F)F)C(F)(F)C(F)(F)F)cc(C)c1NC(=O)c1ccc(C(=O)NCc2ccc(C(C)(C)C)cc2)c(C)c1 (stereo not drawn) [A81]
no or little effect: all assays above

CCc1cc(C(F)(C(F)(F)F)C(F)(F)C(F)(F)F)cc(C)c1NC(=O)c1ccc(C(=O)NCc2ccc(Br)cc2F)c(C)c1 (stereo not drawn) [A83]
no or little effect: all assays above

CCc1cc(C(F)(C(F)(F)F)C(F)(F)C(F)(F)F)cc(C)c1NC(=O)c1ccc(C(=O)NCc2ccc(C)c(C)c2)c(C)c1 (stereo not drawn) [A91]
no or little effect: all assays above
